Reference: patent US9994515B2, “Aryl naphthyl methanone oxime(s) and process for preparation thereof” (Council of Scientific & Industrial Research, priority 2013, dated 2018)
pIC50: −log10 of the molar value. Where a name gives a salt, the structure may show the parent alone. Read-outs that look alike come from different tables or passages of the source.

Assays:
[1] = system: Ishikawa; assay: MTT assay in Ishikawa endometrial adenocarcinoma cells; format: cell-based; details: Homo sapiens, Ishikawa, Table 6, 48 h, 10 point dose response
[2] = system: DU-145; assay: MTT assay in DU-145 prostate tumor cells; format: cell-based; details: Homo sapiens, DU-145, Table 6, 48 h, 10 point dose response
[3] = system: NIH3T3; assay: MTT cytotoxicity assay in NIH3T3 fibroblasts; format: cell-based, mouse
Method: (§1) To consider a molecule as a candidate compound in cancer drug therapy, the test compound must have specific cytotoxicity towards the cancer cells without affecting normal cell growth. Therefore, all active compounds were assessed for toxicity in non-cancer cell-lines: mouse fibroblast cell line (NIH3T3) and monkey kidney epithelial cells (Vero). […] Therefore, based on safety index ([…]), 5d [Centans; based on IUPAC name prefixed with Central Drug Research Institute's signature (Cent)] was selected as a lead compound.

[4] = system: MCF-7; assay: MTT assay in MCF-7 breast tumor cells; format: cell-based; details: Homo sapiens, MCF7, Table 6, 48 h, 10 point dose response
[5] = system: K562; assay: MTT cytotoxicity assay in K562 cells; format: cell-based
[6] = system: MDA-MB231; assay: MTT assay in MDA-MB-231 breast tumor cells; format: cell-based; details: Homo sapiens, MDA-MB-231, Table 6, 48 h, 10 point dose response
[7] = system: HL60; assay: MTT cytotoxicity assay in HL-60 cells; format: cell-based
[8] = system: HCT116; assay: Sulphorhodamine B assay in HCT116 colon cancer cells; format: cell-based; details: Homo sapiens, HCT-116; SRB assay
[9] = system: Colo205; assay: Sulphorhodamine B assay in Colo205 colon cancer cells; format: cell-based; details: Homo sapiens, COLO 205; SRB assay
[10] = system: DLD1; assay: Sulphorhodamine B assay in DLD1 colon cancer cells; format: cell-based; details: Homo sapiens, DLD-1; SRB assay
[11] = system: SW620; assay: Sulphorhodamine B assay in SW620 colon cancer cells; format: cell-based; details: Homo sapiens, SW-620; SRB assay
[12] = system: CD133+ DLD1 colon cancer cells; assay: CD133+ colon cancer stem cell population by flow cytometry; format: cell-based; details: 20 uM, 24 h, vehicle 15.30%
Method: FIG. 9. Centans reduces CD133+ colon cancer stem cells with a higher efficacy than salinomycin. DLD1 colon cancer cells were treated with indicated compounds for 24h following which the CD133+ population was assessed by flow cytometry using CD133 antibody or relevant isotype control antibody (BD biosciences) in a Becton Dickinson FACS Calibur. Numbers in the dot plot represent % CD133+ cells.

[13] = system: Kasumi 1; assay: Cytotoxicity in Kasumi 1 cells; format: cell-based
[14] = system: Vero; assay: Cytotoxicity in Vero kidney epithelial cells; format: cell-based, monkey; details: Primates, Vero; Table 2; normal cell line
Method: as §1

[15] = system: U937; assay: Cytotoxicity in U937 cells; format: cell-based
[16] = system: PBMCs isolated from healthy individuals; assay: MTT cytotoxicity in PBMCs from healthy controls; details: 1 μM, 48 h; for % cell death, Average: healthy control, average of C1-C3
[17] = Mus musculus, NIH3T3, 48 h, Table 1, MTT assay after 48 h treatment
[18] = Homo sapiens, K562, 48 h, Table 1, MTT assay after 48 h treatment
[19] = Homo sapiens, HL-60, 48 h, Table 1, MTT assay after 48 h treatment
[20] = Homo sapiens, Kasumi 1, Table 2
[21] = Mus musculus, NIH3T3, Table 2, normal cell line
[22] = Table 1, MTT assay after 48 h treatment, fumarate

Structure (SMILES)	pIC50 [1]	pIC50 [2]	pIC50 [3, 17]	pIC50 [4]	pIC50 [5, 18]	pIC50 [6]	pIC50 [7, 19]	also measured
CSc1ccc(/C(=N/O)c2cccc3ccccc23)cc1 [Compound 4a, (4-(methylthio)phenyl)(naphthalen-1-yl)methanone oxime]	< 4.30	< 4.30	< 4.30	4.74	< 4.30	4.70	< 4.30	melting point: 135 °C
O=c1[nH]cc(F)c(=O)[nH]1 [Compound 5-FU, 5-fluoro uracil, reference compound]								pIC50 [8]: < 4.30; pIC50 [9]: 4.42; pIC50 [10]: 4.79; pIC50 [11]: < 4.30; CD133+ population after treatment (minus isotype control) [12]: no effect
CSc1ccc(/C(=N/OCCN2CCCCC2)c2cccc3ccccc23)cc1 [Compound 5a, (4-(methylthio)phenyl)(naphthalen-1-yl)methanone O-2-(piperidin-1-yl)ethyl oxime oxalate]	5.00	5.00	4.82	4.87	5.24	5.06	< 4.70	pIC50 [13, 20]: 4.57; pIC50 [14]: < 4.60; pIC50 ([15]; Homo sapiens, U-937, Table 2): < 4.74; pIC50 [3, 21]: 4.82; pIC50 ([5]; Homo sapiens, K562, Table 2): 5.24; pIC50 ([7]; Homo sapiens, HL-60, Table 2): < 4.70
CCN(CC)CCO/N=C(/c1ccc(SC)cc1)c1cccc2ccccc12 [Compound 5j, (4-(methylthio)phenyl)(naphthalen-1-yl)methanone O-2-(diethylamino)ethyl oxime fumarate]								pIC50 ([13]; Table 2, fumarate): 4.70; pIC50 ([15]; Table 2, fumarate): < 4.62; pIC50 [3, 22]: 4.60; pIC50 ([3]; Table 2, normal cell line, fumarate): 4.60; pIC50 [5, 22]: 5.07; pIC50 ([5]; Table 2, fumarate): 5.07; pIC50 [7, 22]: 5.00; pIC50 ([7]; Table 2, fumarate): 5.00
CSc1ccc(/C(=N/OCCCN(C)C)c2cccc3ccccc23)cc1 [Compound 5m, (4-(methylthio)phenyl)(naphthalen-1-yl)methanone O-3-(dimethylamino)propyl oxime oxalate]	5.15	5.02	< 4.60	5.10	5.32	5.14	5.11	pIC50 [13, 20]: < 5.00; pIC50 [14]: < 4.60; pIC50 ([15]; Homo sapiens, U-937, Table 2): < 4.82; pIC50 [3, 21]: < 4.60; pIC50 ([5]; Homo sapiens, K562, Table 2): 5.32; pIC50 ([7]; Homo sapiens, HL-60, Table 2): 5.11
CSc1ccc(/C(=N/OCCCN2CCOCC2)c2cccc3ccccc23)cc1 [Compound 7b, (4-(methylthio)phenyl)(naphthalen-1-yl)methanone O-3-morpholinopropyl oxime]	< 4.30	< 4.30	< 4.30	< 4.30	< 4.30	< 4.30	< 4.30	melting point: 89 °C
CSc1ccc(/C(=N/OCCCN2CCC(C)CC2)c2cccc3ccccc23)cc1 [Compound 7c, (4-(methylthio)phenyl)(naphthalen-1-yl)methanone O-3-(4-methylpiperidin-1-yl)propyl oxime oxalate]	< 4.30	5.00	4.68	5.19	5.24	4.70	< 4.30	pIC50 [13, 20]: 4.72; pIC50 [14]: < 4.60; pIC50 ([15]; Homo sapiens, U-937, Table 2): < 4.60; pIC50 [3, 21]: 4.68; pIC50 ([5]; Homo sapiens, K562, Table 2): 5.24; pIC50 ([7]; Homo sapiens, HL-60, Table 2): < 4.30
CSc1ccc(/C(=N/OCCCCN2CCCC2)c2cccc3ccccc23)cc1 [Compound 8b, (4-(methylthio)phenyl)(naphthalen-1-yl)methanone O-4-(pyrrolidin-1-yl)butyl oxime]	< 4.30	< 4.30	< 4.30	< 4.30	< 4.30	< 4.30	< 4.30	
Cc1nc(Nc2ncc(C(=O)Nc3c(C)cccc3Cl)s2)cc(N2CCN(CCO)CC2)n1 [Dasatinib]								pIC50 ([5]; Homo sapiens, K562, 48 h, Table 3, MTT, 48 h, 10 point dose response, read-out: IC 50 K562): 5.17; pIC50 ([7]; Homo sapiens, HL-60, 48 h, Table 3, MTT, 48 h, 10 point dose response, read-out: IC 50 HL 60): 5.16; % cell death ([16]; healthy control sample C1): 2.39%; % cell death ([16]; healthy control sample C2): 12.03%; % cell death ([16]; healthy control sample C3): 18.93%; % cell death, Average [16]: 11.12%
Cc1ccc(NC(=O)c2ccc(CN3CCN(C)CC3)cc2)cc1Nc1nccc(-c2cccnc2)n1 [Imatinib]								% cell death ([16]; healthy control sample C1): 10.51%; % cell death, Average [16]: 16.12%
CC[C@@H](C(=O)[C@@H](C)[C@@H](O)[C@H](C)[C@@H]1O[C@@H]([C@@H](CC)C(=O)O)CC[C@@H]1C)[C@H]1O[C@]2(C=C[C@@H](O)[C@]3(CC[C@@](C)([C@H]4CC[C@](O)(CC)[C@H](C)O4)O3)O2)[C@H](C)C[C@@H]1C [salinomycin]								CD133+ population after treatment (minus isotype control) [12]: 5.42%
